Data published in ChEMBL document CHEMBL1201862, “PubChem BioAssay data set” (2004).
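Five concentrations, 48 hours, 96-well plates. The concentration for 50% growth inhibition is given as GI50.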 The source made the active and inactive calls. Cut-off read from the data, not from the text of the source: active = GI50 up to about 1.1 µM and inactive = higher.

What was measured:
Assay in all cases: NCI-60 cell line screen, 48 h
HCT-15 = tested on: HCT-15
KM12 = tested on: KM12
UACC-257 = tested on: UACC-257
NCI-H226 = tested on: NCI-H226
HOP-92 = tested on: HOP-92
HCT-116 = tested on: HCT-116
MOLT-4 = tested on: MOLT-4
UACC-62 = tested on: UACC-62
NCI-H522 = tested on: NCI-H522
OVCAR-3 = tested on: OVCAR-3
NCI/ADR-RES = tested on: NCI/ADR-RES
EKVX = tested on: EKVX
SR = tested on: SR
IGROV-1 = tested on: IGROV-1
MDA-MB-435 = tested on: MDA-MB-435
NCI-H23 = tested on: NCI-H23
HCC 2998 = tested on: HCC 2998
MCF7 = tested on: MCF7
SNB-75 = tested on: SNB-75
SK-OV-3 = tested on: SK-OV-3

## CC(CCC(=O)O)(c1ccc(O)cc1)c1ccc(O)cc1
HCT-15
  GI50: > 100 µM
KM12
  GI50: > 100 µM (inactive)
UACC-257
  GI50: > 100 µM (inactive)
NCI-H226
  GI50: > 100 µM (inactive)
HOP-92
  GI50: > 100 µM (inactive)
HCT-116
  GI50: > 100 µM (inactive)
MOLT-4
  GI50: > 100 µM (inactive)
UACC-62
  GI50: > 100 µM (inactive)
NCI-H522
  GI50: > 100 µM (inactive)
OVCAR-3
  GI50: > 100 µM (inactive)
NCI/ADR-RES
  GI50: > 100 µM (inactive)
EKVX
  GI50: > 100 µM (inactive)
SR
  GI50: > 100 µM (inactive)
IGROV-1
  GI50: > 100 µM (inactive)
MDA-MB-435
  GI50: > 100 µM (inactive)
NCI-H23
  GI50: > 100 µM (inactive)

## Cc1cc(S(=O)(=O)/N=C2\NCCN2Cc2ccccc2)c(S)cc1Cl
HCT-15
  GI50: > 100 µM
KM12
  GI50: > 100 µM (inactive)
UACC-257
  GI50: > 100 µM (inactive)
HCC 2998
  GI50: > 100 µM (inactive)
NCI-H226
  GI50: 61.2 µM (inactive)
HCT-116
  GI50: > 100 µM (inactive)
MCF7
  GI50: > 100 µM (inactive)
MOLT-4
  GI50: 47.2 µM (inactive)
UACC-62
  GI50: 72.1 µM (inactive)
NCI-H522
  GI50: 40.6 µM (inactive)
OVCAR-3
  GI50: > 100 µM (inactive)
SNB-75
  GI50: > 100 µM (inactive)
NCI/ADR-RES
  GI50: > 100 µM (inactive)
EKVX
  GI50: > 100 µM (inactive)
IGROV-1
  GI50: > 100 µM (inactive)
SK-OV-3
  GI50: > 100 µM (inactive)
MDA-MB-435
  GI50: > 100 µM (inactive)
NCI-H23
  GI50: > 100 µM (inactive)

## [N-]=[N+]=Nc1c(Cc2ccccc2)c(=O)oc2ccccc12
HCT-15
  GI50: 31 µM
UACC-257
  GI50: 45.8 µM (inactive)
HCC 2998
  GI50: 26 µM (inactive)
HCT-116
  GI50: > 10 µM (inactive)
MCF7
  GI50: 32.6 µM (inactive)
MOLT-4
  GI50: 5.06 µM (inactive)
UACC-62
  GI50: > 10 µM (inactive)
OVCAR-3
  GI50: 49.5 µM (inactive)
SNB-75
  GI50: 28.6 µM (inactive)
NCI/ADR-RES
  GI50: 27.6 µM (inactive)
SR
  GI50: 33.4 µM (inactive)
IGROV-1
  GI50: 21.5 µM (inactive)
SK-OV-3
  GI50: 32.1 µM (inactive)
MDA-MB-435
  GI50: 22.3 µM (inactive)
NCI-H23
  GI50: 26.4 µM (inactive)

## COc1ccc(C(=O)/C=C/c2ccc(OCCCOc3ccc(/C=C/C(=O)c4ccc(OC)c(OC)c4)cc3)cc2)cc1OC
HCT-15
  GI50: > 100 µM
KM12
  GI50: > 100 µM (inactive)
UACC-257
  GI50: > 100 µM (inactive)
HCC 2998
  GI50: > 100 µM (inactive)
NCI-H226
  GI50: > 100 µM (inactive)
HCT-116
  GI50: > 100 µM (inactive)
MCF7
  GI50: > 100 µM (inactive)
MOLT-4
  GI50: > 100 µM (inactive)
UACC-62
  GI50: > 100 µM (inactive)
SNB-75
  GI50: > 100 µM (inactive)
NCI/ADR-RES
  GI50: > 100 µM (inactive)
EKVX
  GI50: > 100 µM (inactive)
SR
  GI50: > 100 µM (inactive)
IGROV-1
  GI50: > 100 µM (inactive)
SK-OV-3
  GI50: > 100 µM (inactive)
MDA-MB-435
  GI50: > 100 µM (inactive)

## CN(C)C1(N(C)C)Oc2c(c(=O)n(C)c(=O)n2C)C(c2ccccc2)C1(F)F (centres undefined)
HCT-15
  GI50: > 100 µM
KM12
  GI50: > 100 µM (inactive)
UACC-257
  GI50: > 100 µM (inactive)
HCC 2998
  GI50: > 100 µM (inactive)
NCI-H226
  GI50: > 100 µM (inactive)
HOP-92
  GI50: > 100 µM (inactive)
HCT-116
  GI50: > 100 µM (inactive)
MCF7
  GI50: > 100 µM (inactive)
MOLT-4
  GI50: > 100 µM (inactive)
UACC-62
  GI50: > 100 µM (inactive)
OVCAR-3
  GI50: > 100 µM (inactive)
SNB-75
  GI50: > 100 µM (inactive)
NCI/ADR-RES
  GI50: > 100 µM (inactive)
EKVX
  GI50: > 100 µM (inactive)
SK-OV-3
  GI50: > 100 µM (inactive)
MDA-MB-435
  GI50: > 100 µM (inactive)
NCI-H23
  GI50: > 100 µM (inactive)

## COC(=O)c1c(O)ccc2c1c1c(n2Cc2ccccc2OC)C(=O)c2ccccc2C1
HCT-15
  GI50: 63.4 µM
KM12
  GI50: 93.5 µM (inactive)
UACC-257
  GI50: 34.7 µM (inactive)
NCI-H226
  GI50: 70.3 µM (inactive)
HCT-116
  GI50: 27.8 µM (inactive)
MCF7
  GI50: 23.7 µM (inactive)
MOLT-4
  GI50: 48.3 µM (inactive)
UACC-62
  GI50: 76.4 µM (inactive)
OVCAR-3
  GI50: 88.7 µM (inactive)
SNB-75
  GI50: 61.9 µM (inactive)
NCI/ADR-RES
  GI50: 29.3 µM (inactive)
SR
  GI50: 77.3 µM (inactive)
IGROV-1
  GI50: 63.1 µM (inactive)
SK-OV-3
  GI50: 78.5 µM (inactive)
MDA-MB-435
  GI50: 45.3 µM (inactive)
NCI-H23
  GI50: 74.8 µM (inactive)

## N#Cc1nc2cc(Cl)ccc2nc1N1CCN(c2ccc([N+](=O)[O-])cc2)CC1
HCT-15
  GI50: > 100 µM
KM12
  GI50: > 100 µM (inactive)
UACC-257
  GI50: > 100 µM (inactive)
HCC 2998
  GI50: 18.9 µM (inactive)
HCT-116
  GI50: > 100 µM (inactive)
MCF7
  GI50: > 100 µM (inactive)
MOLT-4
  GI50: > 100 µM (inactive)
UACC-62
  GI50: > 100 µM (inactive)
OVCAR-3
  GI50: > 100 µM (inactive)
SNB-75
  GI50: > 100 µM (inactive)
NCI/ADR-RES
  GI50: > 100 µM (inactive)
EKVX
  GI50: > 100 µM (inactive)
SK-OV-3
  GI50: > 100 µM (inactive)
MDA-MB-435
  GI50: > 100 µM (inactive)
NCI-H23
  GI50: > 100 µM (inactive)

## Cc1ccc(Cc2nn(C)c(=O)n2N)cc1
HCT-15
  GI50: > 100 µM
KM12
  GI50: > 100 µM (inactive)
UACC-257
  GI50: > 100 µM (inactive)
HCC 2998
  GI50: > 100 µM (inactive)
NCI-H226
  GI50: > 100 µM (inactive)
HOP-92
  GI50: > 100 µM (inactive)
HCT-116
  GI50: > 100 µM (inactive)
MCF7
  GI50: > 100 µM (inactive)
UACC-62
  GI50: > 100 µM (inactive)
OVCAR-3
  GI50: > 100 µM (inactive)
NCI/ADR-RES
  GI50: > 100 µM (inactive)
EKVX
  GI50: > 100 µM (inactive)
IGROV-1
  GI50: > 100 µM (inactive)
SK-OV-3
  GI50: > 100 µM (inactive)
MDA-MB-435
  GI50: > 100 µM (inactive)
NCI-H23
  GI50: > 100 µM (inactive)
